These results are taken from publication PMC3134468, “Functions of Some Capsular Polysaccharide Biosynthetic Genes in Klebsiella pneumoniae NTUH K-2044” (PLoS ONE, 2011).

In the experiment the target is T1, WcaG (KP3709) (Klebsiella pneumoniae, UniProt A0ACD7U4D6).
T1 construct: His-tagged (pET28a), expressed in E. coli BL21 star (DE3)
As to the kind of experiment: HPLC product analysis. The settings on record: coupled with Gmd from GDP-mannose, pH 8.0. The format is biochemical. The text has this: HPLC product analysis on WcaG (KP3709) | GDP-mannose+NADPH+KP3711+KP3709

Structures are written as SMILES.

As for `NC(=O)C1=CN([C@@H]2O[C@H](COP(=O)(O)OP(=O)(O)OC[C@H]3O[C@@H](n4cnc5c(N)ncnc54)[C@H](OP(=O)(O)O)[C@@H]3O)[C@@H](O)[C@H]2O)C=CC1` [NADPH], the HPLC product analysis result is on record as “GDP-mannose+NADPH+KP3711+KP3709”.
